Reference: BindingDB's records for doi:10.1021/jm020871e (University of Bonn, 2002)

Target: Muscarinic acetylcholine receptor M2 (Sus scrofa) (UniProt P06199)
Assay: Binding of [3H]N-methylscopolamine at porcine heart Muscarinic acetylcholine receptor M2 that inhibits the dissociation of [3H]NMS half maximally (pEC50diss) was reported

Sequence of Muscarinic acetylcholine receptor M2 (Sus scrofa) (P06199 whole entry, looked up): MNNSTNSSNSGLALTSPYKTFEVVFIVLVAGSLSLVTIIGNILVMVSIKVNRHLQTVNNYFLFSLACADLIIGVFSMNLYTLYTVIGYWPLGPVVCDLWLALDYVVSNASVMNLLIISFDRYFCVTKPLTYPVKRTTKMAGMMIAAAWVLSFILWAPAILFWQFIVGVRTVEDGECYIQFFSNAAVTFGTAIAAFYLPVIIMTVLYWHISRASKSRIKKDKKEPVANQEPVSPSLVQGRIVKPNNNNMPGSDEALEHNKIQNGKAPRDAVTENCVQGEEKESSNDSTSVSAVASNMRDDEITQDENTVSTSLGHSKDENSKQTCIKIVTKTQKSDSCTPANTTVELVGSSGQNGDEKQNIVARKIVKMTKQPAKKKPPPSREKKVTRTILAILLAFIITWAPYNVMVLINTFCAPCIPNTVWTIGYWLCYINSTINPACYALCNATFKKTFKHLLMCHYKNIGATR

SMILES	EC50 [nM]
Cc1ccc2c(c1)C(=O)N(CC(C)(C)C[N+](C)(C)CCCCCC[N+](C)(C)CC(C)(C)CN1C(=O)c3ccc(C)cc3C1=O)C2=O	47
Cc1ccc2c(c1)C(=O)N(CCC[N+](C)(C)CCCCCC[N+](C)(C)CCCN1C(=O)c3ccc(C)cc3C1=O)C2=O	170
Cc1ccc2c(c1)C(=O)N(CCC[N+](C)(C)CCCCCC[N+](C)(C)CCCN1C(=O)c3ccccc3C1=O)C2=O	324
CC(C)(CN1C(=O)c2ccccc2C1=O)C[N+](C)(C)CCCCCC[N+](C)(C)CC(C)(C)CN1C(=O)c2ccccc2C1=O	178

Other lines, results leading:

EC50 [nM]	SMILES
55	Cc1ccc2c(c1)C(=O)N(CC(C)(C)C[N+](C)(C)CCCCCC[N+](C)(C)CCCN1C(=O)c3ccccc3C1=O)C2=O
135	CC(C)(CN1C(=O)c2ccccc2C1=O)C[N+](C)(C)CCCCCC[N+](C)(C)CCCN1C(=O)c2ccccc2C1=O
71	Cc1ccc2c(c1)C(=O)N(CCC[N+](C)(C)CCCCCC[N+](C)(C)CC(C)(C)CN1C(=O)c3ccccc3C1=O)C2=O
36	Cc1ccc2c(c1)C(=O)N(CCC[N+](C)(C)CCCCCC[N+](C)(C)CC(C)(C)CN1C(=O)c3ccc(C)cc3C1=O)C2=O
